Data on 13 compounds can be found in patent US12662479B2 (Foghorn Therapeutics Inc., priority 2020, dated 2026).

In assay [1] the target is T1, HiBit-BRG1 fusion protein (Homo sapiens, UniProt P51532).
T1 construct: expressed in transfected cells
The experiment in a line: HiBiT-BRG1 cell-based degradation assay (Nano-Glo HiBiT Lytic Detection, 24 h). To be noted: HeLa cells expressing HiBit-BRG1 and LgBit; for DC50: read-out: BRG1 HiBit Degradation IC50; for Dmax: HeLa, top dose 30 μM, read-out: BRG1 HiBit Degradation Maximum measured. A digest of the protocol:
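Stable HeLa line expressing HiBiT-BRG1 and LgBiT, seeded at 5000 cells/well; luminescence read after lytic Nano-Glo HiBiT reagent and 10 min shaking at RT. % degradation normalised between DMSO (high control) and 2 μM reference BRM/BRG1 degrader (low control).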

The target in the next assay is T2, HiBit-BRM fusion protein (Homo sapiens, UniProt P51531).
T2 construct: expressed in transfected cells
In words: HiBiT-BRM cell-based degradation assay (Nano-Glo HiBiT Lytic Detection, 24 h). To be noted: HeLa cells expressing HiBiT-BRM; for DC50: read-out: BRM HiBit Degradation IC50; for BRM HiBit Degradation Maximum measured: top dose 30 μM. A digest of the protocol: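 HeLa cells stably expressing HiBiT-BRM were treated for 24 h with compounds (10-point 3-fold dilutions, 30 μM final top dose, in duplicate). HiBiT was detected by lytic LgBiT complementation luminescence. % degradation was normalized to DMSO (high control) and 2 μM of a reference BRM/BRG1 degrader (low control).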
In general terms: HiBiT is a short tag that completes a luciferase, so light tracks the accessible tagged protein.

Structures are written as SMILES. Where a name gives a salt, the structure may show the parent alone.

T1 sequence (P51532 whole entry, the tested form may be a part): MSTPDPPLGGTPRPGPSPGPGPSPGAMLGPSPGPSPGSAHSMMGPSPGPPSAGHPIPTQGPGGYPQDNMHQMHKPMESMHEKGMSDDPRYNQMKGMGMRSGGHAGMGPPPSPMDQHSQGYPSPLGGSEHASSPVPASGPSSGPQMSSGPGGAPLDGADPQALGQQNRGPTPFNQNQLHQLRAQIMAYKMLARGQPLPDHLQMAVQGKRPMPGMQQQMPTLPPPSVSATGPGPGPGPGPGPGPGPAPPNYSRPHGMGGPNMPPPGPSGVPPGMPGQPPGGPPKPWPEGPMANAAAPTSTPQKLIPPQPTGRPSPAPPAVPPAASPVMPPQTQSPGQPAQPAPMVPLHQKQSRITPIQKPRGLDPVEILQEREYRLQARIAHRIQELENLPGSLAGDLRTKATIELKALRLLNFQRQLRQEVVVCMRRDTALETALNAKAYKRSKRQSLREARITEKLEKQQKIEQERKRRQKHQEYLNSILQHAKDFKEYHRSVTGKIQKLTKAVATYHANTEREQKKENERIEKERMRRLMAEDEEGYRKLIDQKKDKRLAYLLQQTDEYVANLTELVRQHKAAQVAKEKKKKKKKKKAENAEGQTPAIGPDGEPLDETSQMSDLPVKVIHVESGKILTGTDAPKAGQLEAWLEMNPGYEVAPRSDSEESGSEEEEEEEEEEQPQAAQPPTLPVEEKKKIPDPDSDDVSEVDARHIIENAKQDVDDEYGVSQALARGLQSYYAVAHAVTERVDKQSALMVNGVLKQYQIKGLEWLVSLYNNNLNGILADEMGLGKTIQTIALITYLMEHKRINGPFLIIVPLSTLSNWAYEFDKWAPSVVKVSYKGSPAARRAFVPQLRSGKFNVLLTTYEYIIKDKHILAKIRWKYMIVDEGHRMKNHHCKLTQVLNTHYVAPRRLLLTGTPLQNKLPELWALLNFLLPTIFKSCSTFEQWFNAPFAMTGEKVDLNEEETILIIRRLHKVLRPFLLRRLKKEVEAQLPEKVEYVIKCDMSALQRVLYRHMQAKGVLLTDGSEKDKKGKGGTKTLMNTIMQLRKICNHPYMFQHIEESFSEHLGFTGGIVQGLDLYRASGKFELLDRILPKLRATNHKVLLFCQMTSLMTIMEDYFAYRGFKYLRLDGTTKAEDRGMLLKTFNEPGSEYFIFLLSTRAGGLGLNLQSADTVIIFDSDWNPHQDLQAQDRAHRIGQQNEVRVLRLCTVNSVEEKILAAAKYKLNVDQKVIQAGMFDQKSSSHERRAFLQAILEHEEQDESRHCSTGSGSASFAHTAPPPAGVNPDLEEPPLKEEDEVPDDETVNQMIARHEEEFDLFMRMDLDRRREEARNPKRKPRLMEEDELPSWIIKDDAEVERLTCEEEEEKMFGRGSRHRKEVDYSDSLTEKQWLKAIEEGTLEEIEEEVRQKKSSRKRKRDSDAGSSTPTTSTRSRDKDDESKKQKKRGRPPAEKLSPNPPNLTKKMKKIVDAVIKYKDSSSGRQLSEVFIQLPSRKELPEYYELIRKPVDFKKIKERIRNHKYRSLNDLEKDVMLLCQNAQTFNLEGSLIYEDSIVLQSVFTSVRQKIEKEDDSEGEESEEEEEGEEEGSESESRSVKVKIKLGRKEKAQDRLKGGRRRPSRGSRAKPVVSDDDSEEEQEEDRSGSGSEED
T2 sequence (P51531 whole entry, the tested form may be a part): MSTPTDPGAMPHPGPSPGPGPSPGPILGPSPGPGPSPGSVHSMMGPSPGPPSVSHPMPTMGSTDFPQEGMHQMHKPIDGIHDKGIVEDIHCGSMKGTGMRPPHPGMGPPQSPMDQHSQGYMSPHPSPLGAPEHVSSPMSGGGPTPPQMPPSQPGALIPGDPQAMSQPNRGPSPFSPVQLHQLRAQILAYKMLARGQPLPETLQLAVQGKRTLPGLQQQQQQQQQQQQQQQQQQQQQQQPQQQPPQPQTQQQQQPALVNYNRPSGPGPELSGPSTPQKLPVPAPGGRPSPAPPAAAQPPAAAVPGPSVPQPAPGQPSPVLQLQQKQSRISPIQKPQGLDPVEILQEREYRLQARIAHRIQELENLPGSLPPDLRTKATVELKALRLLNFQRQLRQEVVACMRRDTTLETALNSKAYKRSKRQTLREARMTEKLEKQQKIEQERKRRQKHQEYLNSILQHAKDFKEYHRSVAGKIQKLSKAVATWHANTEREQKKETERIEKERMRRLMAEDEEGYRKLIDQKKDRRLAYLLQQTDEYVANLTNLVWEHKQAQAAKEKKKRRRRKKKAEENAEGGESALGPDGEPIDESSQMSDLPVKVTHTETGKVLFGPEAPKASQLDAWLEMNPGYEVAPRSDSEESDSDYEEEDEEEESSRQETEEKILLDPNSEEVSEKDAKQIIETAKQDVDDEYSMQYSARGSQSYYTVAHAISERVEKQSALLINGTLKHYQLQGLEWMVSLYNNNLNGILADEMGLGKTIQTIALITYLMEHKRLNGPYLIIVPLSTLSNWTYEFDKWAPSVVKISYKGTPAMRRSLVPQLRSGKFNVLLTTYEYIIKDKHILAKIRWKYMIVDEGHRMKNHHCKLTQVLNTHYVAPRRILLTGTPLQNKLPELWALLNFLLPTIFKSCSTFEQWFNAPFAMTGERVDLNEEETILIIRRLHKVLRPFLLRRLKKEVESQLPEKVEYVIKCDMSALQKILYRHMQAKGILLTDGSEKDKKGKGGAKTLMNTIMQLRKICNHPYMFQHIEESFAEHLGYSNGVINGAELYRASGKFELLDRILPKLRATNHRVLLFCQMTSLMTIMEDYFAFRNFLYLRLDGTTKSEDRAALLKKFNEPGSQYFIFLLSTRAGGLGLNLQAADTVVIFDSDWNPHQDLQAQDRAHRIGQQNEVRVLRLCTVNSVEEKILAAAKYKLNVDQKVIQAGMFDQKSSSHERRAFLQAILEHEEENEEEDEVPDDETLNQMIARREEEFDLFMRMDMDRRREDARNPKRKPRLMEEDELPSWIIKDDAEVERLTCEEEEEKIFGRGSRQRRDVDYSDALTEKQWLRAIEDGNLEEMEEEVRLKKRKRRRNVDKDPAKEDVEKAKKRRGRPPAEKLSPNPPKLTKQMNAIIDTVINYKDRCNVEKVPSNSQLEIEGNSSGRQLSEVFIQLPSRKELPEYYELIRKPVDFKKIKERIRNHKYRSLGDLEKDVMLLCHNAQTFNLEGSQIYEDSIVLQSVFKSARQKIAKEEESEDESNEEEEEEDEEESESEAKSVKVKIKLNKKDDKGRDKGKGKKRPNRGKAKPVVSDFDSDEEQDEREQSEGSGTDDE

For the compound `CS(=O)(=O)n1ccc(C(=O)NCC(=O)Nc2nc(-c3cccc(-c4ccnc(C5(C(=O)N6CCN(c7ccc8c(c7)C(=O)N(C7CCC(=O)NC7=O)C8=O)CC6)CC5)c4)c3)cs2)c1` (stereo not shown) [Compound 132, N-(4-[3-[2-(1-[4-[2-(2,6-dioxopiperidin-3-yl)-1,3-dioxoisoindol-5-yl]piperazine-1-carbonyl]cyclopropyl)pyridin-4-yl]phenyl]-1,3-thiazol-2-yl)-2-[(1-methanesulfonylpyrrol-3-yl)formamido]acetamide], in assay [1], the DC50 is above 10000 nM and the Dmax is below 50%. Moreover, on HiBit-BRM fusion protein, the DC50 was above 10000 nM and the “BRM HiBit Degradation Maximum measured” value is “C (‘C’ = Maximum degradation <50%)”.

On to `CS(=O)(=O)n1ccc(C(=O)NCC(=O)Nc2nc(-c3cccc(-c4ccnc(C5(C(=O)NCCNc6ccc7c(c6)C(=O)N(C6CCC(=O)NC6=O)C7=O)CC5)c4)c3)cs2)c1` (stereo not shown) [Compound 133, N-(2-[[2-(2,6-dioxopiperidin-3-yl)-1,3-dioxoisoindol-5-yl]amino]ethyl)-1-[4-[3-(2-[2-[(1-methanesulfonylpyrrol-3-yl)formamido]acetamido]-1,3-thiazol-4-yl)phenyl]pyridin-2-yl]cyclopropane-1-carboxamide], for which, in assay [1], the DC50 is below 100 nM and the Dmax is above 75%. At HiBit-BRM fusion protein, the DC50 fell in the range of 100 to 1000 nM; the “BRM HiBit Degradation Maximum measured” value is “B (‘B’ = Maximum degradation ≥50% and ≤75%)”.

For the compound `CS(=O)(=O)n1ccc(C(=O)NCC(=O)Nc2nc(-c3cccc(-c4ccnc(C5(C(=O)N6CCN(CC7CCN(c8ccc9c(c8)C(=O)N(C8CCC(=O)NC8=O)C9=O)CC7)CC6)CC5)c4)c3)cs2)c1` (stereo not shown) [Compound 134, N-[4-[3-(2-[1-[4-([1-[2-(2,6-dioxopiperidin-3-yl)-1,3-dioxoisoindol-5-yl]piperidin-4-yl]methyl)piperazine-1-carbonyl]cyclopropyl]pyridin-4-yl)phenyl]-1,3-thiazol-2-yl]-2-[(1-methanesulfonylpyrrol-3-yl)formamido]acetamide], in assay [1], the DC50 was below 100 nM and the Dmax is above 75%. At HiBit-BRM fusion protein, the DC50 lay within 100 to 1000 nM and the “BRM HiBit Degradation Maximum measured” value is on record as “A (‘A’ = Maximum degradation >75%)”.

In the case of `CS(=O)(=O)n1ccc(C(=O)NCC(=O)Nc2nc(-c3cccc(-c4ccnc(C5(C(=O)N6CCN(CCCOc7ccc8c(c7)C(=O)N(C7CCC(=O)NC7=O)C8=O)CC6)CC5)c4)c3)cs2)c1` (stereo not shown) [Compound 135, N-[4-[3-(2-[1-[4-(3-[[2-(2,6-dioxopiperidin-3-yl)-1,3-dioxoisoindol-5-yl]oxy]propyl)piperazine-1-carbonyl]cyclopropyl]pyridin-4-yl)phenyl]-1,3-thiazol-2-yl]-2-[(1-methanesulfonylpyrrol-3-yl)formamido]acetamide], in assay [1], the DC50 is 100 to 1000 nM and the Dmax was above 75%. Moreover, at HiBit-BRM fusion protein, the DC50 was 100 to 1000 nM; the “BRM HiBit Degradation Maximum measured” value is “B (‘B’ = Maximum degradation ≥50% and ≤75%)”.

For the compound `CS(=O)(=O)n1ccc(C(=O)NCC(=O)Nc2nc(-c3cccc(-c4ccnc(C5(C(=O)N6CC(CCOc7cccc8c7C(=O)N(C7CCC(=O)NC7=O)C8=O)C6)CC5)c4)c3)cs2)c1` (stereo not shown) [Compound 136, N-[4-[3-(2-[1-[3-(2-[[2-(2,6-dioxopiperidin-3-yl)-1,3-dioxoisoindol-4-yl]oxy]ethyl)azetidine-1-carbonyl]cyclopropyl]pyridin-4-yl)phenyl]-1,3-thiazol-2-yl]-2-[(1-methanesulfonylpyrrol-3-yl)formamido]acetamide], in assay [1], the DC50 was above 10000 nM and the Dmax was below 50%. At HiBit-BRM fusion protein, the DC50 is above 10000 nM and the “BRM HiBit Degradation Maximum measured” value is “C (‘C’ = Maximum degradation <50%)”.

Consider `Cc1ncsc1-c1ccc(CNC(=O)[C@@H]2C[C@@H](O)CN2C(=O)[C@@H](NC(=O)C2CC3(CC(C(=O)NCc4cccc(-c5cccc(-c6csc(NC(=O)CNC(=O)c7ccn(S(C)(=O)=O)c7)n6)c5)c4)C3)C2)C(C)(C)C)cc1` (stereo partly drawn) [Compound 137, N2-[(2S)-1-[(2S,4R)-4-hydroxy-2-([[4-(4-methyl-1,3-thiazol-5-yl)phenyl]methyl]carbamoyl)pyrrolidin-1-yl]-3,3-dimethyl-1-oxobutan-2-yl]-N6-[[3′-(2-[2-[(1-methanesulfonylpyrrol-3-yl)formamido]acetamido]-1,3-thiazol-4-yl)-[1,1′-biphenyl]-3-yl]methyl]spiro[3.3]heptane-2,6-dicarboxamide], for which, in assay [1], the DC50 is above 10000 nM and the Dmax was below 50%. On HiBit-BRM fusion protein, the DC50 is above 10000 nM and the “BRM HiBit Degradation Maximum measured” value is given as “C (‘C’ = Maximum degradation <50%)”.

Consider `Cc1ncsc1-c1ccc(CNC(=O)[C@@H]2C[C@@H](O)CN2C(=O)[C@@H](NC(=O)CN2CCC(C(=O)NCc3cccc(-c4cccc(-c5csc(NC(=O)CNC(=O)c6ccn(S(C)(=O)=O)c6)n5)c4)c3)CC2)C(C)(C)C)cc1` [Compound 138, 1-([[(2S)-1-[(2S,4R)-4-hydroxy-2-([[4-(4-methyl-1,3-thiazol-5-yl)phenyl]methyl]carbamoyl)pyrrolidin-1-yl]-3,3-dimethyl-1-oxobutan-2-yl]carbamoyl]methyl)-N-[[3-(2-[2-[(1-methanesulfonylpyrrol-3-yl)formamido]acetamido]-1,3-thiazol-4-yl)-[1,1-biphenyl]-3-yl]methyl]piperidine-4-carboxamide], for which, in assay [1], the DC50 fell in the range of 1000 to 10000 nM and the Dmax lay within 50 to 75%. Moreover, on HiBit-BRM fusion protein, the DC50 was 1000 to 10000 nM; the “BRM HiBit Degradation Maximum measured” value is “B (‘B’ = Maximum degradation ≥50% and ≤75%)”.

For `CS(=O)(=O)n1ccc(C(=O)NCC(=O)Nc2nc(-c3cccc(-c4ccnc(C5(C(=O)NC6CCN(CCCCOc7ccc8c(c7)C(=O)N(C7CCC(=O)NC7=O)C8=O)CC6)CC5)c4)c3)cs2)c1` (stereo not shown) [Compound 140, N-[1-(4-[[2-(2,6-dioxopiperidin-3-yl)-1,3-dioxoisoindol-5-yl]oxy]butyl)piperidin-4-yl]-1-[4-[3-(2-[2-[(1-methanesulfonylpyrrol-3-yl)formamido]acetamido]-1,3-thiazol-4-yl)phenyl]pyridin-2-yl]cyclopropane-1-carboxamide], in assay [1], the DC50 was in the range of 100 to 1000 nM and the Dmax was above 75%. At HiBit-BRM fusion protein, the DC50 is 100 to 1000 nM and the “BRM HiBit Degradation Maximum measured” value is recorded as “A (‘A’ = Maximum degradation >75%)”.

`CS(=O)(=O)n1ccc(C(=O)NCC(=O)Nc2nc(-c3cccc(-c4ccnc(C5(C(=O)N6CC(Oc7ccc8c(c7)C(=O)N(C7CCC(=O)NC7=O)C8=O)C6)CC5)c4)c3)cs2)c1` (stereo not shown) [Compound 141, N-[4-(3-[2-[1-(3-[[2-(2,6-dioxopiperidin-3-yl)-1,3-dioxoisoindol-5-yl]oxy]azetidine-1-carbonyl)cyclopropyl]pyridin-4-yl]phenyl)-1,3-thiazol-2-yl]-2-[(1-methanesulfonylpyrrol-3-yl)formamido]acetamide]: in assay [1], the DC50 was above 10000 nM and the Dmax is below 50%. At HiBit-BRM fusion protein, the DC50 was in the range of 100 to 1000 nM; the “BRM HiBit Degradation Maximum measured” value is “B (‘B’ = Maximum degradation ≥50% and ≤75%)”.

On to `Cc1ncsc1-c1ccc(CNC(=O)[C@@H]2C[C@@H](O)CN2C(=O)[C@@H](NC(=O)CCCCCCC(=O)NCc2cc(-c3cccc(-c4csc(NC(=O)CNC(=O)c5ccn(S(C)(=O)=O)c5)n4)c3)ccn2)C(C)(C)C)cc1` [Compound 142], for which, in assay [1], the DC50 is above 10000 nM and the Dmax was below 50%. Moreover, at HiBit-BRM fusion protein, the DC50 was above 10000 nM and the “BRM HiBit Degradation Maximum measured” value is on record as “C (‘C’ = Maximum degradation <50%)”.

`CS(=O)(=O)n1ccc(C(=O)NCC(=O)Nc2nc(C3CCCN(C(=O)CCCCCCCCCCNc4ccc5c(c4)C(=O)N(C4CCC(=O)NC4=O)C5=O)C3)cs2)c1` (stereo not shown) [Compound 143, N-{4-[1-(11-{[2-(2,6-dioxopiperidin-3-yl)-1,3-dioxo-2,3-dihydro-1H-isoindol-5-yl]amino}undecanoyl)piperidin-3-yl]-1,3-thiazol-2-yl}-2-[(1-methanesulfonyl-1H-pyrrol-3-yl)formamido]acetamide]: in assay [1], the DC50 was above 10000 nM and the Dmax was below 50%. In addition, at HiBit-BRM fusion protein, the DC50 is above 10000 nM and the “BRM HiBit Degradation Maximum measured” value is reported as “C (‘C’ = Maximum degradation <50%)”.

Consider `CS(=O)(=O)n1ccc(C(=O)NCC(=O)Nc2nc(C3CCCN(C(=O)CCOCCOCCOc4ccc5c(c4)C(=O)N(C4CCC(=O)NC4=O)C5=O)C3)cs2)c1` (stereo not shown) [Compound 144, N-[4-(1-{3-[2-(2-{[2-(2,6-dioxopiperidin-3-yl)-1,3-dioxo-2,3-dihydro-1H-isoindol-5-yl]oxy}ethoxy)ethoxy]propanoyl}piperidin-3-yl)-1,3-thiazol-2-yl]-2-[(1-methanesulfonyl-1H-pyrrol-3-yl)formamido]acetamide], for which, in assay [1], the DC50 was above 10000 nM and the Dmax was below 50%. Further, at HiBit-BRM fusion protein, the DC50 was above 10000 nM and the “BRM HiBit Degradation Maximum measured” value is reported as “C (‘C’ = Maximum degradation <50%)”.

Consider `CS(=O)(=O)n1ccc(C(=O)NCC(=O)Nc2nc(C3CCCN(C(=O)C4CCN(CCOc5ccc6c(c5)C(=O)N(C5CCC(=O)NC5=O)C6=O)CC4)C3)cs2)c1` (stereo not shown) [Compound 145, N-(4-{1-[1-(2-{[2-(2,6-dioxopiperidin-3-yl)-1,3-dioxo-2,3-dihydro-1H-isoindol-5-yl]oxy}ethyl)piperidine-4-carbonyl]piperidin-3-yl}-1,3-thiazol-2-yl)-2-[(1-methanesulfonyl-1H-pyrrol-3-yl)formamido]acetamide formate], for which, in assay [1], the DC50 is above 10000 nM and the Dmax is below 50%. For the same compound, on HiBit-BRM fusion protein, the DC50 is above 10000 nM and the “BRM HiBit Degradation Maximum measured” value is listed as “C (‘C’ = Maximum degradation <50%)”.
